Data from patent US5591714A, “Derivatives of A82846” (priority 1994, dated 1997).

Key:
Enterococcus faecium X66 = assay: MIC, standard agar-dilution assay; type: cell-based
Method: (§1) The formula I compounds have in vitro and in vivo activity against Gram-positive pathogenic bacteria. The MIC's were determined using a standard agar-dilution assays.
^b Formerly Streptococcus faecium X66

[1] = tested on: Enterococcus faecalis 2041; assay: MIC, standard agar-dilution assay; type: cell-based
Method: as §1
^c Formerly Streptococcus faecalis 2041

Streptococcus pneumoniae = assay: In vivo activity, experimentally infected mice (ED50); conditions: Streptococcus pneumoniae infection; doses administered subcutaneously to mice 1 and 4 hours postinfection
[2] = tested on: Staphylococcus aureus NRRL X1.1; assay: MIC, standard agar-dilution assay; type: cell-based
Method: as §1

[3] = tested on: Staphylococcus aureus X400; assay: MIC, standard agar-dilution assay; type: cell-based
Method: as §1

[4] = tested on: Haemophilus influenzae 76; assay: MIC, standard agar-dilution assay; type: cell-based
Method: as §1

[5] = tested on: Staphylococcus aureus V41; assay: MIC, standard agar-dilution assay; type: cell-based
Method: as §1

Escherichia coli N10 = assay: MIC, standard agar-dilution assay; type: cell-based
Method: as §1

[6] = tested on: Streptococcus pyogenes C203; assay: MIC, standard agar-dilution assay; type: cell-based
Method: as §1

[7] = tested on: Klebsiella pneumoniae X26; assay: MIC, standard agar-dilution assay; type: cell-based
Method: as §1

[8] = tested on: Klebsiella pneumoniae X68; assay: MIC, standard agar-dilution assay; type: cell-based
Method: as §1

[9] = tested on: Haemophilus influenzae C.L.; assay: MIC, standard agar-dilution assay; type: cell-based
Method: as §1

Escherichia coli EC14 = assay: MIC, standard agar-dilution assay; type: cell-based
Method: as §1

[10] = tested on: Staphylococcus epidermidis EPI270; assay: MIC, standard agar-dilution assay; type: cell-based
Method: as §1

[11] = tested on: Staphylococcus epidermidis 222; assay: MIC, standard agar-dilution assay; type: cell-based
Method: as §1

[12] = tested on: Klebsiella pneumoniae KAE; assay: MIC, standard agar-dilution assay; type: cell-based
Method: as §1

Escherichia coli TEM = assay: MIC, standard agar-dilution assay; type: cell-based
Method: as §1

[13] = tested on: Staphylococcus aureus S13E; type: cell-based
Method: as §1

[14] = tested on: Streptococcus pneumoniae Park 1; type: cell-based
Method: as §1

Staphylococcus aureus = assay: In vivo activity, experimentally infected mice (ED50); conditions: Staphylococcus aureus infection; doses administered subcutaneously to mice 1 and 4 hours postinfection
Streptococcus pyogenes = assay: as above; conditions: Streptococcus pyogenes infection; doses administered subcutaneously to mice 1 and 4 hours postinfection

CN[C@H](CC(C)C)C(=O)N[C@H]1C(=O)N[C@@H](CC(N)=O)C(=O)N[C@H]2C(=O)N[C@H]3C(=O)N[C@H](C(=O)N[C@H](C(=O)O)c4cc(O)cc(O)c4-c4cc3ccc4O)[C@H](O[C@H]3C[C@](C)(N)[C@@H](O)[C@H](C)O3)c3ccc(cc3)Oc3cc2cc(c3O[C@@H]2O[C@H](CO)[C@@H](O)[C@H](O)[C@H]2O[C@H]2C[C@](C)(NCc3ccccc3)[C@@H](O)[C@H](C)O2)Oc2ccc(cc2Cl)[C@H]1O [Compound 10]
0.2 mg/kg/2: ED50 (Streptococcus pyogenes)
.25 µg/mL: MIC (Enterococcus faecium X66) | MIC [2] | MIC [5] | MIC [6] | MIC [10] | MIC [11]
0.4 mg/kg/2: ED50 (Streptococcus pneumoniae)
.5 µg/mL: MIC [1] | MIC [3]
0.46 mg/kg/2: ED50 (Staphylococcus aureus)
.125 µg/mL: MIC [13] | MIC [14]
> 128 µg/mL: MIC [4] | MIC (Escherichia coli N10) | MIC [7] | MIC [8] | MIC [9] | MIC (Escherichia coli EC14) | MIC [12] | MIC (Escherichia coli TEM)

CNC(CC(C)C)C(=O)NC1C(=O)NC(CC(N)=O)C(=O)NC2C(=O)NC3C(=O)NC(C(=O)NC(C(=O)O)c4cc(O)cc(O)c4-c4cc3ccc4O)C(OC3CC(C)(NCc4ccccc4)C(O)C(C)O3)c3ccc(cc3)Oc3cc2cc(c3O)Oc2ccc(cc2Cl)C1O (stereo not drawn) [Compound 73]
7.30 mg/kg/2: ED50 (Streptococcus pyogenes)
1 µg/mL: MIC (Enterococcus faecium X66) | MIC [2] | MIC [3] | MIC [5] | MIC [6] | MIC [13] | MIC [14]
> 8.0 mg/kg/2: ED50 (Streptococcus pneumoniae) | ED50 (Staphylococcus aureus)
2 µg/mL: MIC [1] | MIC [11]
> 64 µg/mL: MIC [4]
.25 µg/mL: MIC [10]
> 128 µg/mL: MIC (Escherichia coli N10) | MIC [7] | MIC [8] | MIC [9] | MIC (Escherichia coli EC14) | MIC [12] | MIC (Escherichia coli TEM)

CNC(CC(C)C)C(=O)NC1C(=O)NC(CC(N)=O)C(=O)NC2C(=O)NC3C(=O)NC(C(=O)NC(C(=O)O)c4cc(O)cc(O)c4-c4cc3ccc4O)C(OC3CC(C)(NCc4ccccc4)C(O)C(C)O3)c3ccc(cc3)Oc3cc2cc(c3OC2OC(CO)C(O)C(O)C2O)Oc2ccc(cc2Cl)C1O (stereo not drawn) [Compound 70]
4.10 mg/kg/2: ED50 (Staphylococcus aureus)
.5 µg/mL: MIC [10]
2 µg/mL: MIC (Enterococcus faecium X66) | MIC [1] | MIC [2] | MIC [3] | MIC [5] | MIC [6] | MIC [11] | MIC [13] | MIC [14]
3.76 mg/kg/2: ED50 (Streptococcus pneumoniae)
2.38 mg/kg/2: ED50 (Streptococcus pyogenes)
> 128 µg/mL: MIC [4] | MIC (Escherichia coli N10) | MIC [7] | MIC [8] | MIC [9] | MIC (Escherichia coli EC14) | MIC [12] | MIC (Escherichia coli TEM)

CCCCCN[C@@]1(C)C[C@H](O[C@H]2[C@H](Oc3c4cc5cc3Oc3ccc(cc3Cl)[C@@H](O)[C@@H](NC(=O)[C@@H](CC(C)C)N(C)CCCCC)C(=O)N[C@@H](CC(N)=O)C(=O)N[C@H]5C(=O)N[C@H]3C(=O)N[C@H](C(=O)N[C@H](C(=O)O)c5cc(O)cc(O)c5-c5cc3ccc5O)[C@H](O[C@H]3C[C@](C)(N)[C@@H](O)[C@H](C)O3)c3ccc(cc3)O4)O[C@H](CO)[C@@H](O)[C@@H]2O)O[C@@H](C)[C@@H]1O [Compound 7]
> 128 µg/mL: MIC [4] | MIC (Escherichia coli N10) | MIC [7] | MIC [8] | MIC [9] | MIC (Escherichia coli EC14) | MIC [12] | MIC (Escherichia coli TEM)
0.83 mg/kg/2: ED50 (Streptococcus pyogenes)
4.09 mg/kg/2: ED50 (Staphylococcus aureus)
1 µg/mL: MIC [2] | MIC [3] | MIC [5] | MIC [11] | MIC [13]
2 µg/mL: MIC (Enterococcus faecium X66) | MIC [1] | MIC [10]
0.98 mg/kg/2: ED50 (Streptococcus pneumoniae)
.5 µg/mL: MIC [6] | MIC [14]

CCN(CC)c1ccc(CN[C@@]2(C)C[C@H](O[C@H]3[C@H](Oc4c5cc6cc4Oc4ccc(cc4Cl)[C@@H](O)[C@@H](NC(=O)[C@@H](CC(C)C)NC)C(=O)N[C@@H](CC(N)=O)C(=O)N[C@H]6C(=O)N[C@H]4C(=O)N[C@H](C(=O)N[C@H](C(=O)O)c6cc(O)cc(O)c6-c6cc4ccc6O)[C@H](O[C@H]4C[C@](C)(N)[C@@H](O)[C@H](C)O4)c4ccc(cc4)O5)O[C@H](CO)[C@@H](O)[C@@H]3O)O[C@@H](C)[C@@H]2O)cc1 [Compound 17]
0.33 mg/kg/2: ED50 (Streptococcus pneumoniae)
> 128 µg/mL: MIC [4] | MIC (Escherichia coli N10) | MIC [7] | MIC [8] | MIC [9] | MIC (Escherichia coli EC14) | MIC [12] | MIC (Escherichia coli TEM)
0.23 mg/kg/2: ED50 (Streptococcus pyogenes)
1 µg/mL: MIC (Enterococcus faecium X66) | MIC [1] | MIC [10]
.5 µg/mL: MIC [2] | MIC [3] | MIC [5] | MIC [11] | MIC [13]
.25 µg/mL: MIC [6] | MIC [14]
0.78 mg/kg/2: ED50 (Staphylococcus aureus)

CCCCCN(C)[C@H](CC(C)C)C(=O)N[C@H]1C(=O)N[C@@H](CC(N)=O)C(=O)N[C@H]2C(=O)N[C@H]3C(=O)N[C@H](C(=O)N[C@H](C(=O)O)c4cc(O)cc(O)c4-c4cc3ccc4O)[C@H](O[C@H]3C[C@](C)(N)[C@@H](O)[C@H](C)O3)c3ccc(cc3)Oc3cc2cc(c3O[C@@H]2O[C@H](CO)[C@@H](O)[C@H](O)[C@H]2O[C@H]2C[C@](C)(N)[C@@H](O)[C@H](C)O2)Oc2ccc(cc2Cl)[C@H]1O [Compound 6]
0.88 mg/kg/2: ED50 (Staphylococcus aureus)
.25 µg/mL: MIC [2] | MIC [3] | MIC [5] | MIC [13]
.125 µg/mL: MIC [6] | MIC [14]
1 µg/mL: MIC (Enterococcus faecium X66) | MIC [1]
> 128 µg/mL: MIC [4] | MIC (Escherichia coli N10) | MIC [7] | MIC [8] | MIC [9] | MIC (Escherichia coli EC14) | MIC [12] | MIC (Escherichia coli TEM)
.5 µg/mL: MIC [10] | MIC [11]
0.67 mg/kg/2: ED50 (Streptococcus pyogenes)
0.94 mg/kg/2: ED50 (Streptococcus pneumoniae)

CNC(CC(C)C)C(=O)NC1C(=O)NC(CC(N)=O)C(=O)NC2C(=O)NC3C(=O)NC(C(=O)NC(C(=O)O)c4cc(O)cc(O)c4-c4cc3ccc4O)C(OC3CC(C)(N)C(O)C(C)O3)c3ccc(c(Cl)c3)Oc3cc2cc(c3OC2OC(CO)C(O)C(O)C2OC2CC(C)(NCc3cccc(Cl)c3)C(O)C(C)O2)Oc2ccc(cc2Cl)C1O (stereo not drawn) [Compound 64]
.06 µg/mL: MIC [6]
0.94 mg/kg/2: ED50 (Streptococcus pyogenes)
.5 µg/mL: MIC [3] | MIC [11] | MIC [13]
> 128 µg/mL: MIC [4] | MIC (Escherichia coli N10) | MIC [7] | MIC [8] | MIC [9] | MIC (Escherichia coli EC14) | MIC [12] | MIC (Escherichia coli TEM)
0.55 mg/kg/2: ED50 (Staphylococcus aureus)
0.10 mg/kg/2: ED50 (Streptococcus pneumoniae)
.25 µg/mL: MIC (Enterococcus faecium X66) | MIC [1] | MIC [2] | MIC [5] | MIC [10] | MIC [14]
